{"source": "patent US10836725B2", "about": "“Modulators of the integrated stress pathway” (Calico Life Sciences LLC, priority 2016, dated 2020)", "test_system": "ATF4 luciferase reporter", "test": "ATF4-Luc assay in HEK293T cells carrying the ATF4 luciferase reporter (in vitro model of VWMD)", "assay_type": "cell-based, human", "settings": "1 μg/mL tunicamycin, 7 hours, luminescence (One Glo)", "experimental": "In order to test exemplary compounds of the invention in a cellular context, a stable VWMD cell line was first constructed. The ATF4 reporter was prepared by fusing the human full-length ATF4 5′-UTR (NCBI Accession No. BC022088.2) in front of the firefly luciferase (FLuc) coding sequence lacking the initiator methionine as described in Sidrauski et al (eLife 2013). The construct was used to produce recombinant retroviruses using standard methods and the resulting viral supernatant was used to transduce HEK293T cells, which were then subsequently selected with puromycin to generate a stable cell line.\nHEK293T cells carrying the ATF4 luciferase reporter were plated on polylysine coated 384-well plates (Greiner Bio-one) at 30,000 cells per well. Cells were treated the next day with 1 μg/mL tunicamycin and 200 nM of a compound of Formula (I) for 7 hours. Luminescence was measured using One Glo (Promega) as specified by the manufacturer. Cells were maintained in DMEM with L-glutamine supplemented with 10% heat-inactivated FBS (Gibco) and Antibiotic-Antimycotic solution (Gibco).\nTable 2 below summarizes the EC50 data obtained using the ATF4-Luc assay for exemplary compounds of the invention."}
{"smiles": "O=C(COc1ccc(Cl)c(F)c1)NC12CC(C(=O)NCc3ccccc3)(C1)C2", "note": "[Compound 162, N-benzyl-3-[2-(4-chloro-3-fluorophenoxy)acetamido]bicyclo[1.1.1]pentane-1-carboxamide]", "values": [{"measurement": "EC50", "setting": "Homo sapiens, HEK-293T", "result": "> 2000", "unit": "nM"}]}
{"smiles": "O=C(COc1ccc(Cl)c(F)c1)NC12CC(C(=O)NCc3c(Cl)cccc3Cl)(C1)C2", "note": "[Compound 163, 3-[2-(4-chloro-3-fluorophenoxy)acetamido]-N-[(2,6-dichlorophenyl)methyl]bicyclo[1.1.1]pentane-1-carboxamide]", "values": [{"measurement": "EC50", "setting": "Homo sapiens, HEK-293T", "result": "> 2000", "unit": "nM"}]}
{"smiles": "Cc1ccncc1CNC(=O)C12CC(NC(=O)COc3ccc(Cl)c(F)c3)(C1)C2", "note": "[Compound 165, 3-[2-(4-chloro-3-fluorophenoxy)acetamido]-N-[(4-methylpyridin-3-yl)methyl]bicyclo[1.1.1]pentane-1-carboxamide]", "values": [{"measurement": "EC50", "setting": "Homo sapiens, HEK-293T", "result": "> 2000", "unit": "nM"}]}
{"smiles": "Cc1cccc(CNC(=O)C23CC(NC(=O)COc4ccc(Cl)c(F)c4)(C2)C3)c1", "note": "[Compound 166, 3-[2-(4-chloro-3-fluorophenoxy)acetamido]-N-[(3-methylphenyl)methyl]bicyclo[1.1.1]pentane-1-carboxamide]", "values": [{"measurement": "EC50", "setting": "Homo sapiens, HEK-293T", "result": "> 2000", "unit": "nM"}]}
{"smiles": "CC(C)(C)c1ccc(CNC(=O)C23CC(NC(=O)COc4ccc(Cl)c(F)c4)(C2)C3)cc1", "note": "[Compound 167, N-[(4-tert-butylphenyl)methyl]-3-[2-(4-chloro-3-fluorophenoxy)acetamido]bicyclo[1.1.1]pentane-1-carboxamide]", "values": [{"measurement": "EC50", "setting": "Homo sapiens, HEK-293T", "result": "> 2000", "unit": "nM"}]}
{"smiles": "Cc1ccc(CNC(=O)C23CC(NC(=O)COc4ccc(Cl)c(F)c4)(C2)C3)nc1", "note": "[Compound 168, 3-[2-(4-chloro-3-fluorophenoxy)acetamido]-N-[(5-methylpyridin-2-yl)methyl]bicyclo[1.1.1]pentane-1-carboxamide]", "values": [{"measurement": "EC50", "setting": "Homo sapiens, HEK-293T", "result": "1000 to 2000", "unit": "nM"}]}
{"smiles": "O=C(COc1ccc(Cl)c(F)c1)NC12CC(C(=O)NCc3ccc(OC(F)F)cc3)(C1)C2", "note": "[Compound 169, 3-[2-(4-chloro-3-fluorophenoxy)acetamido]-N-{[4-(difluoromethoxy)phenyl]methyl}bicyclo[1.1.1]pentane-1-carboxamide]", "values": [{"measurement": "EC50", "setting": "Homo sapiens, HEK-293T", "result": "500 to 1000", "unit": "nM"}]}
{"smiles": "O=C(COc1ccc(Cl)c(F)c1)NC12CC(C(=O)NCc3cnoc3)(C1)C2", "note": "[Compound 170, 3-[2-(4-chloro-3-fluorophenoxy)acetamido]-N-[(1,2-oxazol-4-yl)methyl]bicyclo[1.1.1]pentane-1-carboxamide]", "values": [{"measurement": "EC50", "setting": "Homo sapiens, HEK-293T", "result": "> 2000", "unit": "nM"}]}
{"smiles": "CC(Cc1ccc(F)cc1)NC(=O)C12CC(NC(=O)COc3ccc(Cl)c(F)c3)(C1)C2", "note": "(centres unmarked) [Compound 171, 3-[2-(4-chloro-3-fluorophenoxy)acetamido]-N-[1-(4-fluorophenyl)propan-2-yl]bicyclo[1.1.1]pentane-1-carboxamide]", "values": [{"measurement": "EC50", "setting": "Homo sapiens, HEK-293T", "result": "1000 to 2000", "unit": "nM"}]}
{"smiles": "CC(NC(=O)C12CC(NC(=O)COc3ccc(Cl)c(F)c3)(C1)C2)c1ccccc1", "note": "(centres unmarked) [Compound 172, 3-[2-(4-chloro-3-fluorophenoxy)acetamido]-N-(1-phenylethyl)bicyclo[1.1.1]pentane-1-carboxamide]", "values": [{"measurement": "EC50", "setting": "Homo sapiens, HEK-293T", "result": "> 2000", "unit": "nM"}]}
{"smiles": "COc1ccc(CNC(=O)C23CC(NC(=O)COc4ccc(Cl)c(F)c4)(C2)C3)cc1F", "note": "[Compound 173, 3-[2-(4-chloro-3-fluorophenoxy)acetamido]-N-[(3-fluoro-4-methoxyphenyl)methyl]bicyclo[1.1.1]pentane-1-carboxamide]", "values": [{"measurement": "EC50", "setting": "Homo sapiens, HEK-293T", "result": "> 2000", "unit": "nM"}]}
{"smiles": "Cc1ccc(F)c(CNC(=O)C23CC(NC(=O)COc4ccc(Cl)c(F)c4)(C2)C3)c1", "note": "[Compound 174, 3-[2-(4-chloro-3-fluorophenoxy)acetamido]-N-[(2-fluoro-5-methylphenyl)methyl]bicyclo[1.1.1]pentane-1-carboxamide]", "values": [{"measurement": "EC50", "setting": "Homo sapiens, HEK-293T", "result": "> 2000", "unit": "nM"}]}
{"smiles": "CN(Cc1ccccc1)C(=O)C12CC(NC(=O)COc3ccc(Cl)c(F)c3)(C1)C2", "note": "[Compound 175, N-benzyl-3-[2-(4-chloro-3-fluorophenoxy)acetamido]-N-methylbicyclo[1.1.1]pentane-1-carboxamide]", "values": [{"measurement": "EC50", "setting": "Homo sapiens, HEK-293T", "result": "> 2000", "unit": "nM"}]}
{"smiles": "Cc1csc(CNC(=O)C23CC(NC(=O)COc4ccc(Cl)c(F)c4)(C2)C3)n1", "note": "[Compound 176, 3-[2-(4-chloro-3-fluorophenoxy)acetamido]-N-[(4-methyl-1,3-thiazol-2-yl)methyl]bicyclo[1.1.1]pentane-1-carboxamide]", "values": [{"measurement": "EC50", "setting": "Homo sapiens, HEK-293T", "result": "> 2000", "unit": "nM"}]}
{"smiles": "Cc1cnc(CNC(=O)C23CC(NC(=O)COc4ccc(Cl)c(F)c4)(C2)C3)o1", "note": "[Compound 177, 3-[2-(4-chloro-3-fluorophenoxy)acetamido]-N-[(5-methyl-1,3-oxazol-2-yl)methyl]bicyclo[1.1.1]pentane-1-carboxamide]", "values": [{"measurement": "EC50", "setting": "Homo sapiens, HEK-293T", "result": "> 2000", "unit": "nM"}]}
{"smiles": "Cc1cnc(CNC(=O)C23CC(NC(=O)COc4ccc(Cl)c(F)c4)(C2)C3)s1", "note": "[Compound 178, 3-[2-(4-chloro-3-fluorophenoxy)acetamido]-N-[(5-methyl-1,3-thiazol-2-yl)methyl]bicyclo[1.1.1]pentane-1-carboxamide]", "values": [{"measurement": "EC50", "setting": "Homo sapiens, HEK-293T", "result": "> 2000", "unit": "nM"}]}
{"smiles": "Cn1ccc(CNC(=O)C23CC(NC(=O)COc4ccc(Cl)c(F)c4)(C2)C3)n1", "note": "[Compound 179, 3-[2-(4-chloro-3-fluorophenoxy)acetamido]-N-[(1-methyl-1H-pyrazol-3-yl)methyl]bicyclo[1.1.1]pentane-1-carboxamide]", "values": [{"measurement": "EC50", "setting": "Homo sapiens, HEK-293T", "result": "> 2000", "unit": "nM"}]}
{"smiles": "O=C(COc1ccc(Cl)c(F)c1)NC12CC(C(=O)NCc3ccc(F)c(C(F)(F)F)c3)(C1)C2", "note": "[Compound 180, 3-[2-(4-chloro-3-fluorophenoxy)acetamido]-N-{[4-fluoro-3-(trifluoromethyl)phenyl]methyl}bicyclo [1.1.1]pentane-1-carboxamide]", "values": [{"measurement": "EC50", "setting": "Homo sapiens, HEK-293T", "result": "> 2000", "unit": "nM"}]}
{"smiles": "O=C(COc1ccc(Cl)c(F)c1)NC12CC(C(=O)NCc3c(F)cc(Cl)cc3F)(C1)C2", "note": "[Compound 181, N-[(4-chloro-2,6-difluorophenyl)methyl]-3-[2-(4-chloro-3-fluorophenoxy)acetamido]bicyclo[1.1.1]pentane-1-carboxamide]", "values": [{"measurement": "EC50", "setting": "Homo sapiens, HEK-293T", "result": "> 2000", "unit": "nM"}]}
{"smiles": "CCOc1ccccc1CNC(=O)C12CC(NC(=O)COc3ccc(Cl)c(F)c3)(C1)C2", "note": "[Compound 182, 3-[2-(4-chloro-3-fluorophenoxy)acetamido]-N-[(2-ethoxyphenyl)methyl]bicyclo[1.1.1]pentane-1-carboxamide]", "values": [{"measurement": "EC50", "setting": "Homo sapiens, HEK-293T", "result": "> 2000", "unit": "nM"}]}
{"smiles": "C[C@H](NC(=O)C12CC(NC(=O)COc3ccc(Cl)c(F)c3)(C1)C2)c1ccc(Cl)cc1", "note": "[Compound 183, 3-[2-(4-chloro-3-fluorophenoxy)acetamido]-N-[(1S)-1-(4-chlorophenyl)ethyl]bicyclo[1.1.1]pentane-1-carboxamide]", "values": [{"measurement": "EC50", "setting": "Homo sapiens, HEK-293T", "result": "> 2000", "unit": "nM"}]}
{"smiles": "Cn1nccc1CNC(=O)C12CC(NC(=O)COc3ccc(Cl)c(F)c3)(C1)C2", "note": "[Compound 184, 3-[2-(4-chloro-3-fluorophenoxy)acetamido]-N-[(1-methyl-1H-pyrazol-5-yl)methyl]bicyclo[1.1.1]pentane-1-carboxamide]", "values": [{"measurement": "EC50", "setting": "Homo sapiens, HEK-293T", "result": "> 2000", "unit": "nM"}]}
{"smiles": "O=C(COc1ccc(Cl)c(F)c1)NC12CC(C(=O)NCc3ccc(F)c(F)c3)(C1)C2", "note": "[Compound 185, 3-[2-(4-chloro-3-fluorophenoxy)acetamido]-N-[(3,4-difluorophenyl)methyl]bicyclo[1.1.1]pentane-1-carboxamide]", "values": [{"measurement": "EC50", "setting": "Homo sapiens, HEK-293T", "result": "> 2000", "unit": "nM"}]}
{"smiles": "Cn1ccnc1CNC(=O)C12CC(NC(=O)COc3ccc(Cl)c(F)c3)(C1)C2", "note": "[Compound 186, 3-[2-(4-chloro-3-fluorophenoxy)acetamido]-N-[(1-methyl-1H-imidazol-2-yl)methyl]bicyclo[1.1.1]pentane-1-carboxamide]", "values": [{"measurement": "EC50", "setting": "Homo sapiens, HEK-293T", "result": "> 2000", "unit": "nM"}]}
{"smiles": "Cc1cccc([C@H](C)NC(=O)C23CC(NC(=O)COc4ccc(Cl)c(F)c4)(C2)C3)c1", "note": "[Compound 187, 3-[2-(4-chloro-3-fluorophenoxy)acetamido]-N-[(1S)-1-(3-methylphenyl)ethyl]bicyclo[1.1.1]pentane-1-carboxamide]", "values": [{"measurement": "EC50", "setting": "Homo sapiens, HEK-293T", "result": "> 2000", "unit": "nM"}]}
{"smiles": "O=C(COc1ccc(Cl)c(F)c1)NC12CC(C(=O)NCCc3c[nH]cn3)(C1)C2", "note": "[Compound 188, 3-[2-(4-chloro-3-fluorophenoxy)acetamido]-N-[2-(1H-imidazol-4-yl)ethyl]bicyclo[1.1.1]pentane-1-carboxamide]", "values": [{"measurement": "EC50", "setting": "Homo sapiens, HEK-293T", "result": "> 2000", "unit": "nM"}]}
{"smiles": "Cc1cccc([C@@H](C)NC(=O)C23CC(NC(=O)COc4ccc(Cl)c(F)c4)(C2)C3)c1", "note": "[Compound 189, 3-[2-(4-chloro-3-fluorophenoxy)acetamido]-N-[(1R)-1-(3-methylphenyl)ethyl]bicyclo[1.1.1]pentane-1-carboxamide]", "values": [{"measurement": "EC50", "setting": "Homo sapiens, HEK-293T", "result": "> 2000", "unit": "nM"}]}
{"smiles": "Cc1ccc(C)c(CNC(=O)C23CC(NC(=O)COc4ccc(Cl)c(F)c4)(C2)C3)c1", "note": "[Compound 190, 3-[2-(4-chloro-3-fluorophenoxy)acetamido]-N-[(2,5-dimethylphenyl)methyl]bicyclo[1.1.1]pentane-1-carboxamide]", "values": [{"measurement": "EC50", "setting": "Homo sapiens, HEK-293T", "result": "> 2000", "unit": "nM"}]}
{"smiles": "O=C(COc1ccc(Cl)c(F)c1)NC12CC(C(=O)NCc3cn4ccccc4n3)(C1)C2", "note": "[Compound 191, 3-[2-(4-chloro-3-fluorophenoxy)acetamido]-N-[(imidazo[1,2-a]pyridin-2-yl)methyl]bicyclo[1.1.1]pentane-1-carboxamide]", "values": [{"measurement": "EC50", "setting": "Homo sapiens, HEK-293T", "result": "1000 to 2000", "unit": "nM"}]}
{"smiles": "Cc1ccsc1CNC(=O)C12CC(NC(=O)COc3ccc(Cl)c(F)c3)(C1)C2", "note": "[Compound 192, 3-[2-(4-chloro-3-fluorophenoxy)acetamido]-N-[(3-methylthiophen-2-yl)methyl]bicyclo[1.1.1]pentane-1-carboxamide]", "values": [{"measurement": "EC50", "setting": "Homo sapiens, HEK-293T", "result": "> 2000", "unit": "nM"}]}
{"smiles": "O=C(COc1ccc(Cl)c(F)c1)NC12CC(C(=O)NCc3ccc(Cl)c(F)c3)(C1)C2", "note": "[Compound 193, 3-[2-(4-chloro-3-fluorophenoxy)acetamido]-N-[(4-chloro-3-fluorophenyl)methyl]bicyclo[1.1.1]pentane-1-carboxamide]", "values": [{"measurement": "EC50", "setting": "Homo sapiens, HEK-293T", "result": "250 to 500", "unit": "nM"}]}
{"smiles": "O=C(COc1ccc(Cl)c(F)c1)NC12CC(C(=O)NCCc3c[nH]c4ccccc34)(C1)C2", "note": "[Compound 194]", "values": [{"measurement": "EC50", "result": "< 250", "unit": "nM"}]}
